# According to patent US20100216795A1, “TNIK INHIBITOR AND THE USE” (priority 2008, published 2010):
# Target: T1, human TNIK (N-terminal segment, TNIK_N) (Homo sapiens, UniProt Q9UKE5)
# T1 construct: made in house; host or cells: Sf21 insect cells (baculovirus)
# Test: TNIK kinase assay (mobility shift)
# Format: biochemical
# Settings: 25 μM ATP, 1 h at room temperature
# Text: A cDNA encoding the N-terminal segment (TNIK_N, residues 1-314) containing the kinase domain of human TNIK (NM_015028.1) was amplified from cDNA mixture synthesized from human tissue (Biochain) by PCR using the following primers: 5′-[…]-3′ ([SEQ ID NO:1]: forward primer, the underlined nucleotides indicates the location of a EheI site); 5′-[…]-3′ ([SEQ ID NO:2]: reverse primer, the underlined nucleotides indicates the location of a NotI site). The cDNA was subcloned into baculovirus transfer vector pFastBac_GSTb that includes protease cleavage site and glutathione S-transferase purification tag (GST-tag). The plasmid was purified and the insertion of the pFastBac_GSTb-TNIK_N was confirmed by DNA sequencing. Then E. coli DH10Bac competent cells were transformed with the plasmid to prepare the recombinant bacmid according to the instructions for the Bac-to-Bac™ baculovirus expression systems (Invitrogen). The Sf9 cells were transfected with the recombinant bacmid containing pFastBac_GSTb-TNIK_N using Cellfectin Reagent (Invitrogen) in SF-900II serum free media (Invitrogen). The viral supernatant was collected from the medium 72 h after transfection. The virus was amplified three times by infecting actively growing Sf9 or Sf21 cells in Grace's insect media (Invitrogen) supplemented with 10% FCS and an antibiotic-antimycotic reagent (Invitrogen) for 72 h at 27° C. in T-flask or roller bottles. The titer of amplified TNIK_N virus was estimated at 2.36×10^8 pfu/ml by using BacPAK™ Baculovirus Rapid Titer kit (Clontech).
# Log-phase Sf21 cells (2×10^6 cells/ml) in the Grace's insect media were infected with the recombinant baculovirus at MOI of 3.0 and incubated in roller bottles (250 ml media per bottle) for 72 h at 27° C., after which, the cells were collected by centrifugation, and the cell pellet washed with cold PBS and kept at −80° C. until purification. The following purification procedures were carried out at 4° C. The frozen cells were thawed on ice and lysed in lysis buffer (50 mM Tris-HCl, pH 7.5, 150 mM NaCl, 1% Nonidet P-40, 5 mM DTT, 0.5 mM EDTA, 0.5 mM EGTA) supplemented with 1 mM phenylmethansulfonylfluoride, 2 μg/ml leupeptin, 2 μg/ml aprotinin, 1 mM NaF, 100 μM sodium orthovanadate, and 1 μM cantharidin by sonication. The suspended lysate was cleared by centrifugation at 9000 g for 20 min and the supernatant was incubated for 1 h with glutathione Sepharose beads (GE Healthcare). The beads were suspended in buffer-H (50 mM Tris-HCl, pH 7.5, 1 M NaCl, 1 mM DTT, 0.5 mM EDTA, 0.5 mM EGTA and 0.05% Brij35) and washed with buffer-H followed by buffer-L (50 mM Tris-HCl, pH 7.5, 150 mM NaCl, 1 mM DTT, 0.5 mM EDTA, 0.5 mM EGTA, 0.05% Brij35) in an Econo-pack column (BIO-RAD). The bound TNIK_N was eluted with elution buffer (50 mM Tris-HCl, pH 8.0, 150 mM NaCl, 1 mM DTT, 10% glycerol, 0.5 mM EDTA, 0.5 mM EGTA and 5 mM reduced glutathione). The eluted fractions were collected and determined the protein concentration by Bradford reagent (BIO-RAD). The TNIK_N fractions were pooled and desalted using 10DG column (BIORAD) equilibrated with the storage buffer (50 mM Tris-HCl, pH 7.5, 150 mM NaCl, 1 mM DTT, 10% glycerol, 0.05% Brij35). The purified TNIK_N was characterized by electrophoresis using 4-20% polyacrylamide gels and matrix-assisted laser desorption/ionization reflection time-of-flight (MALDI-TOF) mass spectrometry on a Voyager-DE RP MALDI/TOF (Applied Biosystems). TNIK_N was confirmed by the molecular weight and MASCOT Peptide Mass Fingerprint.
# The kinase assays were conducted in a 20 μl volume using 384-well plates (Greiner). The reaction mixture consists of compound or vehicle (1% DMSO), 0.08 ng/μl TNIK_N, 1 μM FITC-labeled substrate peptides, FITC-x-Lys-Tyr-Lys-Thr-Leu-Arg-Gln ([SEQ ID NO.3], x: ε-aminocaproic acid), 20 mM Hepes, pH 7.5, 0.01% Triton X-100, 5 mM MgCl2, 25 μM ATP and 2 mM DTT. As blank, TNIK_N was excluded from the reaction mixture of vehicle (1% DMSO). […]
# T1 sequence (Q9UKE5 1-314): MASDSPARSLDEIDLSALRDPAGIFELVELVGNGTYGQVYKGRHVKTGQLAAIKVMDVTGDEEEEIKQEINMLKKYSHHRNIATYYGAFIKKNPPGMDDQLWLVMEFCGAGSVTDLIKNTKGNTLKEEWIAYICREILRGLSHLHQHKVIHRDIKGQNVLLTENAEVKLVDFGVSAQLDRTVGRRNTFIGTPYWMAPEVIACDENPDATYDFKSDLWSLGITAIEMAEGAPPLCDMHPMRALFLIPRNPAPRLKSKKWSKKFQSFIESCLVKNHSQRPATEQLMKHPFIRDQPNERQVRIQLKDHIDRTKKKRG
row,IC50 [µM],SMILES
1,0.04,"Cc1cccc(C(=O)Nc2sc(Nc3ccccc3)nc2C(N)=O)c1 [Compound 2, 5-(3-methylbenzamido)-2-(phenylamino)thiazole-4-carboxamide]"
2,0.019,"NC(=O)c1nc(Nc2ccccc2)sc1NC(=O)c1ccccc1F [Compound 3, 5-(2-fluorobenzamido)-2-(phenylamino)thiazole-4-carboxamide]"
3,0.01,"COc1ccc(C(=O)Nc2sc(Nc3ccccc3)nc2C(N)=O)cc1 [Compound 4, 5-(4-methoxybenzamido)-2-(phenylamino)thiazole-4-carboxamide]"
4,7.7,"COc1cccc(C(=O)Nc2sc(Nc3ccccc3)nc2C(N)=O)c1 [Compound 5, 5-(3-methoxybenzamido)-2-(phenylamino)thiazole-4-carboxamide]"
5,0.28,"NC(=O)c1nc(Nc2ccccc2)sc1NC(=O)Cc1cccs1 [Compound 6, 2-(phenylamino)-5-(2-(thiophen-2-yl)acetamido)thiazole-4-carboxamide]"
6,0.18,"CC(C)CC(=O)Nc1sc(Nc2ccccc2)nc1C(N)=O [Compound 7, 5-(3-methylbutanamido)-2-(phenylamino)thiazole-4-carboxamide]"
7,0.13,"NC(=O)c1nc(Nc2ccccc2)sc1NC(=O)CC1CCCC1 [Compound 8, 5-(2-cyclopentylacetamido)-2-(phenylamino)thiazole-4-carboxamide]"
8,0.068,"Cc1ccc(Nc2nc(C(N)=O)c(NC(=O)c3ccccc3F)s2)cc1 [Compound 9, 2-(p-toluidino)-5-(2-fluorobenzamido)thiazole-4-carboxamide]"
9,0.014,"CC(=O)Nc1ccc(C(=O)Nc2sc(Nc3ccc(C)cc3)nc2C(N)=O)cc1 [Compound 10, 2-(p-toluidino)-5-(4-acetamidobenzamido)thiazole-4-carboxamide]"
10,1.7,"Cc1ccc(Nc2nc(C(N)=O)c(NC(=O)c3ccccc3Cl)s2)cc1 [Compound 11, 2-(p-toluidino)-5-(2-chlorobenzamido)thiazole-4-carboxamide]"
11,1.7,"Cc1ccc(Nc2nc(C(N)=O)c(NC(=O)c3cccc(Br)c3)s2)cc1 [Compound 12, 2-(p-toluidino)-5-(3-bromobenzamido)thiazole-4-carboxamide]"
12,0.18,"Cc1ccc(Nc2nc(C(N)=O)c(NC(=O)c3c(F)cccc3F)s2)cc1 [Compound 13, 2-(p-toluidino)-5-(2,6-difluorobenzamido)thiazole-4-carboxamide]"
13,0.057,"COc1ccc(C(=O)Nc2sc(Nc3ccc(C)cc3)nc2C(N)=O)cc1OC [Compound 14, 2-(p-toluidino)-5-(3,4-dimethoxybenzamido)thiazole-4-carboxamide]"
14,0.031,"Cc1ccc(Nc2nc(C(N)=O)c(NC(=O)c3cccs3)s2)cc1 [Compound 15, 2-(p-toluidino)-5-(thiophene-2-carboxamido)thiazole-4-carboxamide]"
15,4.1,"CCC(CC)C(=O)Nc1sc(Nc2ccc(C)cc2)nc1C(N)=O [Compound 16, 2-(p-toluidino)-5-(2-ethylbutanamido)thiazole-4-carboxamide]"
16,3.1,"CCNc1nc(C(N)=O)c(NC(=O)c2cc(-c3ccccc3)nc3c(C)cccc23)s1 [Compound 17, 2-(ethylamino)-5-(8-methyl-2-phenylquinoline-4-carboxamido)thiazole-4-carboxamide]"

row,IC50 [µM],SMILES
1,0.006,"Cc1ccc(C(=O)Nc2sc(Nc3ccccc3)nc2C(N)=O)cc1 [Compound A1, 5-(4-methylbenzamido)-2-(phenylamino)thiazole-4-carboxamide]"
2,0.017,"NC(=O)c1nc(Nc2ccccc2)sc1NC(=O)c1ccc(F)cc1 [Compound A2, 5-(4-fluorobenzamido)-2-(phenylamino)thiazole-4-carboxamide]"
3,0.018,"CC(=O)Nc1ccc(C(=O)Nc2sc(Nc3ccc(F)cc3)nc2C(N)=O)cc1 [Compound A4, 5-(4-acetamidobenzamido)-2-(4-fluorophenyl-amino)-thiazole-4-carboxamide]"
4,0.018,"CC(=O)Nc1ccc(C(=O)Nc2sc(Nc3ccccc3C)nc2C(N)=O)cc1 [Compound A9, 2-(o-toluidino)-5-(4-acetamidobenzamido) thiazole-4-carboxamide]"
5,0.014,"COc1ccc(Nc2nc(C(N)=O)c(NC(=O)c3ccc(NC(C)=O)cc3)s2)cc1 [Compound A11, 5-(4-acetamidobenzamido)-2-(4-methoxyphenyl-amino)thiazole-4-carboxamide]"
6,0.024,"CC(=O)Nc1ccc(C(=O)Nc2sc(Nc3ccc(N)cc3)nc2C(N)=O)cc1 [Compound A19, 5-(4-acetamidobenzamido)-2-(4-aminophenyl-amino)thiazole-4-carboxamide]"
7,0.009,"CC(=O)Nc1ccc(C(=O)Nc2sc(Nc3cccnc3)nc2C(N)=O)cc1 [Compound A20, 5-(4-acetamidobenzamido)-2-(pyridin-3-ylamino) thiazole-4-carboxamide]"
8,0.015,"COc1ccc(Nc2nc(C(N)=O)c(NC(=O)c3ccc(N4CCN(C)CC4)cc3)s2)cc1 [Compound A22, 2-(4-methoxyphenylamino)-5-[4-(4-methyl-piperazin-1-yl)benzamido]thiazole-4-carboxamide]"
9,0.008,"COc1ccc(Nc2nc(C(N)=O)c(NC(=O)c3ccc(NCCO)cc3)s2)cc1 [Compound A23, 5-[4-(2-hydroxyethylamino)benzamido]-2-(4-methoxyphenylamino)thiazole-4-carboxamide]"
10,0.011,"COc1ccc(Nc2nc(C(N)=O)c(NC(=O)c3ccc(NCCN(C)C)cc3)s2)cc1 [Compound A24, 5-{4-[2-(dimethylamino)ethylamino]benzamido}-2-(4-methoxyphenylamino)thiazole-4-carboxamide]"
11,0.009,"COc1ccc(Nc2nc(C(N)=O)c(NC(=O)c3ccc(NCCN4CCOCC4)cc3)s2)cc1 [Compound A27, 2-(4-methoxyphenylamino)-5-[4-(2-morpholino-ethyl-amino)benzamido]thiazole-4-carboxamide]"
12,0.008,"COc1ccc(Nc2nc(C(N)=O)c(NC(=O)c3ccc(NCCN4CCCC4)cc3)s2)cc1 [Compound A29, 2-(4-methoxyphenylamino)-5-{4-[2-(pyrrolidin-1-yl)ethylamino]benzamido}thiazole-4-carboxamide]"
13,0.01,"COCCNc1ccc(C(=O)Nc2sc(Nc3ccc(OC)cc3)nc2C(N)=O)cc1 [Compound A31, 5-[4-(2-methoxyethylamino)benzamido]-2-(4-methoxyphenylamino)thiazole-4-carboxamide]"
14,0.009,"COc1ccc(Nc2nc(C(N)=O)c(NC(=O)c3ccc(NC(=O)CO)cc3)s2)cc1 [Compound A37, 5-[4-(2-hydroxyacetamido)benzamido]-2-(4-methoxyphenylamino)thiazole-4-carboxamide]"
15,0.018,"COc1ccc(Nc2nc(C(N)=O)c(NC(=O)c3ccc(NC(=O)CN4CCN(C)CC4)cc3)s2)cc1 [Compound A42, 2-(4-methoxyphenylamino)-5-{4-[2-(4-methyl-piperazin-1-yl)acetamido]benzamido}thiazole-4-carboxamide]"
